From ChEMBL document CHEMBL6092123, “Configuration of two cysteine residues in a ring within a stapled Bim peptide affects the secondary structure and apoptotic activity” (Bioorg Med Chem Lett, 2024)

Legend:
[1] = Drug uptake in human HeLa cells assessed as red signals at 10 uM incubated for 3 hrs by fluorescence microscopy; type: ADME, cell-based
[2] = Proteolytic stability assessed as proteinase K (unknown origin)-mediated drug degradation measured for 15 mins by Tricine-SDS-PAGE analysis; type: ADME; settings: read-out: Drug degradation
HeLa = assay: Induction of apoptosis in human HeLa cells assessed as green signal at 10 uM relative to control; type: functional

Compound	Drug uptake [1]	metabolised at 0.25 h [2] [%]	Activity (HeLa) [%]
CC[C@H](C)[C@@H]1NC(=O)[C@@H](NC(=O)[C@H](CCCNC(=N)N)NC(=O)[C@H](CC(C)C)NC(=O)[C@H](CCC(=O)O)NC(=O)[C@H](CCC(N)=O)NC(=O)[C@H](C)NC(=O)[C@@H](NC(=O)[C@H](Cc2c[nH]c3ccccc23)NC(=O)[C@@H](NC(=O)[C@H](CCC(=O)O)NC(=O)[C@H](CCCNC(=N)N)NC(=O)[C@H](CCCNC(=N)N)NC(=O)[C@H](CCCNC(=N)N)NC(=O)[C@H](CCC(N)=O)NC(=O)[C@H](CCCNC(=N)N)NC(=O)[C@H](CCCNC(=N)N)NC(=O)[C@H](CCCCN)NC(=O)[C@H](CCCCN)NC(=O)[C@@H](N)CCCNC(=N)N)[C@@H](C)CC)[C@@H](C)CC)CSCc2ccccc2CSC[C@@H](C(=O)N[C@@H](Cc2ccccc2)C(=O)N[C@@H](CC(N)=O)C(=O)N[C@@H](C)C(=O)N[C@@H](Cc2ccc(O)cc2)C(=O)N[C@@H](Cc2ccc(O)cc2)C(=O)N[C@@H](C)C(=O)N[C@@H](CCCNC(=N)N)C(=O)O)NC(=O)[C@H](CC(=O)O)NC(=O)CNC1=O	Active	68	94
CC[C@H](C)[C@@H]1NC(=O)[C@@H](NC(=O)[C@H](CCCNC(=N)N)NC(=O)[C@H](CC(C)C)NC(=O)[C@H](CCC(=O)O)NC(=O)[C@H](CCC(N)=O)NC(=O)[C@H](C)NC(=O)[C@@H](NC(=O)[C@H](Cc2c[nH]c3ccccc23)NC(=O)[C@@H](NC(=O)[C@@H](N)CCC(=O)O)[C@@H](C)CC)[C@@H](C)CC)CSCc2ccccc2CSC[C@@H](C(=O)N[C@@H](Cc2ccccc2)C(=O)N[C@@H](CC(N)=O)C(=O)N[C@@H](C)C(=O)N[C@@H](Cc2ccc(O)cc2)C(=O)N[C@@H](Cc2ccc(O)cc2)C(=O)N[C@@H](C)C(=O)N[C@@H](CCCNC(=N)N)C(=O)O)NC(=O)[C@H](CC(=O)O)NC(=O)CNC1=O	Not_active	–	–
CC[C@H](C)[C@@H]1NC(=O)[C@@H](NC(=O)[C@H](CCCNC(=N)N)NC(=O)[C@H](CC(C)C)NC(=O)[C@H](CCC(=O)O)NC(=O)[C@H](CCC(N)=O)NC(=O)[C@H](C)NC(=O)[C@@H](NC(=O)[C@H](Cc2c[nH]c3ccccc23)NC(=O)[C@@H](NC(=O)[C@@H](N)CCC(=O)O)[C@@H](C)CC)[C@@H](C)CC)CSCc2ccccc2CSC[C@H](C(=O)N[C@@H](Cc2ccccc2)C(=O)N[C@@H](CC(N)=O)C(=O)N[C@@H](C)C(=O)N[C@@H](Cc2ccc(O)cc2)C(=O)N[C@@H](Cc2ccc(O)cc2)C(=O)N[C@@H](C)C(=O)N[C@@H](CCCNC(=N)N)C(=O)O)NC(=O)[C@H](CC(=O)O)NC(=O)CNC1=O	–	–	52
CC[C@H](C)[C@H](NC(=O)[C@H](Cc1c[nH]c2ccccc12)NC(=O)[C@@H](NC(=O)[C@H](CCC(=O)O)NC(=O)[C@H](CCCNC(=N)N)NC(=O)[C@H](CCCNC(=N)N)NC(=O)[C@H](CCCNC(=N)N)NC(=O)[C@H](CCC(N)=O)NC(=O)[C@H](CCCNC(=N)N)NC(=O)[C@H](CCCNC(=N)N)NC(=O)[C@H](CCCCN)NC(=O)[C@H](CCCCN)NC(=O)[C@@H](N)CCCNC(=N)N)[C@@H](C)CC)C(=O)N[C@@H](C)C(=O)N[C@@H](CCC(N)=O)C(=O)N[C@@H](CCC(=O)O)C(=O)N[C@@H](CC(C)C)C(=O)N[C@@H](CCCNC(=N)N)C(=O)N[C@@H]1CSCc2ccccc2CSC[C@H](C(=O)N[C@@H](Cc2ccccc2)C(=O)N[C@@H](CC(N)=O)C(=O)N[C@@H](C)C(=O)N[C@@H](Cc2ccc(O)cc2)C(=O)N[C@@H](Cc2ccc(O)cc2)C(=O)N[C@@H](C)C(=O)N[C@@H](CCCNC(=N)N)C(=O)O)NC(=O)[C@H](CC(=O)O)NC(=O)CNC(=O)[C@H]([C@@H](C)CC)NC1=O	–	–	9.3
CC[C@H](C)[C@H](NC(=O)[C@H](Cc1c[nH]c2ccccc12)NC(=O)[C@@H](NC(=O)[C@H](CCC(=O)O)NC(=O)[C@H](CCCNC(=N)N)NC(=O)[C@H](CCCNC(=N)N)NC(=O)[C@H](CCCNC(=N)N)NC(=O)[C@H](CCC(N)=O)NC(=O)[C@H](CCCNC(=N)N)NC(=O)[C@H](CCCNC(=N)N)NC(=O)[C@H](CCCCN)NC(=O)[C@H](CCCCN)NC(=O)[C@@H](N)CCCNC(=N)N)[C@@H](C)CC)C(=O)N[C@@H](C)C(=O)N[C@@H](CCC(N)=O)C(=O)N[C@@H](CCC(=O)O)C(=O)N[C@@H](CC(C)C)C(=O)N[C@@H](CCCNC(=N)N)C(=O)N[C@@H]1CSCc2ccccc2CSC[C@@H](C(=O)N[C@@H](Cc2ccccc2)C(=O)N[C@@H](CC(N)=O)C(=O)N[C@@H](C)C(=O)N[C@@H](Cc2ccc(O)cc2)C(=O)N[C@@H](Cc2ccc(O)cc2)C(=O)N[C@@H](C)C(=O)N[C@@H](CCCNC(=N)N)C(=O)O)NC(=O)[C@H](CC(=O)O)NC(=O)CNC(=O)[C@H]([C@@H](C)CC)NC1=O	–	–	14
H-RKKRRQRRREIWIAQELRRIGDEFNAYYAR-OH	Active	95	37
